These results are taken from patent US20070043082A1, “Use of antimuscarinic drugs” (priority 2005, published 2007).

One data set deals with status epilepticus. Nature of the data set: induction of status epilepticus by systemic pilocarpine. It is filed as in vivo, Wistar rats. Particulars: pilocarpine 320 mg/Kg intraperitoneal; average. The text has this:
(§1) Biperiden, together with atropine, is a classic […] and is known to block muscarinic receptors. These drugs are known by their abilities in blocking the cholinergic transmission which is otherwise mediated through muscarinic receptors. For our experiments we used Wistar, adult, male, rats which were maintained under controlled conditions of temperature, light/dark cycles and kept in groups of up to 6 animals in polypropilene boxes with free access to tap water and rat chow pellets. Rats were subject to the intraperitoneal administration of pilocarpine in a dose of 320 mg/Kg for the induction of status epilepticus.
As expected, the systemic administration of pilocarpine lead to a sequence of behavioral alterations such as akinesia, body tremor and/or myoclonic jerks of the head and oro-facial stereotyped movements accompanied by profuse salivation. Status epilepticus, a condition of uninterrupt epileptic seizure, developed on average 19±5 min after the injection of pilocarpine. Three hours after the onset of status epilepticus the animals in the experimental group (n=10) were intraperitoneally injected with the first initial dose of biperiden (8 mg/kg). […]

The test system of data set [1] is spontaneous recurrent epileptic seizures (pilocarpine model of epilepsy). In words: pilocarpine model of epilepsy in rats: video monitoring of spontaneous epileptic seizures after status epilepticus. Format: in vivo, Wistar rats.
From the text: The current invention was based on an experimental model of epilepsy in which in rats the induction of a brain lesion is accomplished through the administration of pilocarpine, a cholinergic agonist. According to the original description of this model, approximately 20-30 days after pilocarpine injection in either rats or mice, there is the onset of spontaneous recurrent epileptic seizures (Turski W A, Cavalheiro E A, Schwarz M, Czuczwar S J, Kleinrok Z and Turski L. Limbic seizures produced by pilocarpine in rats: behavioural, electroencephalographic and neuropathological study. Behavioral Brain Research, 9:315-335, 1983; Mello L E A M, Cavalheiro E A, Babb T L, Kupfer W R, Pretorius J K, Tan A M and Finch D M. Circuit mechanisms of seizures in the pilocarpine model of chronic epilepsy: cell loss and mossy fiber sprouting. Epilepsia 34:985-995, 1993). Due to its special features the pilocarpine model is currently one of the 3 most widely used experimental models in the study of epilepsy.
as §1
As expected, the systemic administration of pilocarpine lead to a sequence of behavioral alterations such as akinesia, body tremor and/or myoclonic jerks of the head and oro-facial stereotyped movements accompanied by profuse salivation. Status epilepticus, a condition of uninterrupt epileptic seizure, developed on average 19±5 min after the injection of pilocarpine. Three hours after the onset of status epilepticus the animals in the experimental group (n=10) were intraperitoneally injected with the first initial dose of biperiden (8 mg/kg). This dose represents the concentration needed to provoke memory impairments in rodents, (Roldan G, Bolanos-Badillo E, Gonzales-Sanches H, Quirarte G L and Prado-Alcala R A J W. Selective M1 muscarinic receptor antagonists disrupt memory consolidation of inhibitory avoidance in rats. Neurosci. Lett., 230:93-6, 1997).
For the animals in the control group (n=6), […] after the onset of status epileticus, administration of sterile saline solution (0.9% NaCl), rather than biperiden, was started with a similar protocol.
In the pilocarpine model of epilepsy, a few weeks after the administration of pilocarpine and the induction of status epilepticus, the animals develop spontaneous epileptic seizures which recur for as long as the animal are allowed to live. It is assumed that such epileptic condition adequately mimics some types of epileptic seizures in humans and may closely reflect the sequence of events that take place in post-traumatic epilepsies.
Approximately 15 to 20 days after the induction of status epilepticus, the reported duration of the latent period for the onset of spontaneous seizures, monitoring of the behavioral seizures with a videocamera for approximately 12 hours/week was initiated. Based on our initial hypothesis, that the experimental group (treated with biperiden) would either have a substantial reduction or would show no spontaneous epileptic seizures, and therefore to avoid a false negative result, the sampling rate for video monitoring of these animals was performed for 24 hours/week. Animals were video monitored for approximately 120 days after the induction of status epilepticus. The recorded video tapes were routinely assessed in a 29 inches wide television screen and the seizures observed for each animal were recorded.

For data set [2] the following is noted: species and source not stated; cited from earlier work.

Entries after “also recorded” stand apart in the source; their conditions may differ.

As for `CC[C@@H]1C(=O)OC[C@@H]1Cc1cncn1C` [pilocarpine], in the data set on status epilepticus, the “time to development of status epilepticus after injection” value came out at 19 ± 5 min.
Usually half-life stands for the time in which the quantity being followed falls by half. In the case of `OC(CCN1CCCCC1)(c1ccccc1)C1CC2C=CC1C2` (stereo not drawn) [biperiden], the “Length of the latent period for the onset of the first recorded spontaneous epileptic seizure, Latency” value in data set [1] (biperiden 8 mg/kg i.p. every 8 hours for 10 days, started 3 h after onset of status epilepticus, n=10, mean ± standard deviation, p < 0.03 vs control (Mann-Whitney)) stood at 6.0±1.1 weeks. In addition, the “Frequency of spontaneous epileptic seizures, Spontaneous seizures/h” value in data set [1] (biperiden 8 mg/kg i.p. every 8 hours for 10 days, n=10, monitored about 120 days, mean ± standard deviation, p < 0.02 vs control (Mann-Whitney)) came to 0.0202 ± 0.0047 seizures/h. Besides, in data set [1] (compared to animals not treated with biperiden), the “frequency of epileptic seizures in animals that developed seizures (in words)” value is on record as “significantly lesser frequency”. The “mean frequency of spontaneous epileptic seizures of the control group relative to the experimental group” value in data set [1] (control (saline) vs experimental (treated with biperiden)) came out at 2 times. Besides, the “qualitative or quantitative nature of each individual seizure, difference between the two groups” value in data set [1] (experimental (biperiden) vs control) is recorded as “no differences”. In addition, the “mean latency of the experimental group relative to the control group” value in data set [1] (experimental (biperiden) vs control (saline)) is given as “two times greater; also recorded: twice that of the control group”. Moreover, the “onset of spontaneous recurrent seizures, i.e., epilepsy (in words)” value in data set [1] (prophylactic use after pilocarpine lesion) is “significantly retarded or even suppressed”. In addition, the half-life in data set [2] was 24 ± 1.2 h.
